Data taken from patent publication US20200277556A1, “USE OF AN ADDITIVE TO IMPROVE THE QUALITY OF BEVERAGES BASED ON PLANT MUSTS” (OENOTROPIC INNOVATION, priority 2017, published 2020).

Tested on: Wine Proteins
Experiment: Effect of different cofactors on the activity of bromelain on wine, SDS PAGE
Type: biochemical
Details: CaCl2 as cofactor of bromelain; data not presented
Description: Cysteine is known to improve the activity of bromelain. […] To test the relevance of using methionine and glutathione as cofactors of a cysteine protease, the inventors compared the effect of these cofactors to the effect of cysteine on the activity of bromelain in wine. To this end, the following protocol has been implemented: • Wine: Gewurztraminer type with a pH of 3.8; • Add 10 mM of cysteine, glutathione or methionine, for 3 wine samples; • Weigh four times 8 mg of the pre-purified extract obtained from the sequence of steps 1, 2 and 4 of the above method; • Dissolve each pre-purified extract in wine, wine in the presence of cysteine, wine in the presence of glutathione and wine in the presence of methionine; • Leave in contact for 16 hours, with the plate stirring at 80 rpm and at room temperature; • Take 60 μl of the supernatant; • Add 20 μl of Laemmli 4×; • Place 50 μl on SDS PAGE gel.

## [Ca+2].[Cl-].[Cl-] [CaCl2, calcium chloride]
  effect on the hydrolysis of wine proteins: positive effect
